According to BindingDB's records for doi:10.1073/pnas.0608389103 (Johns Hopkins University, 2006):

Tests used:
[1] = molecular target: Methionine aminopeptidase 1 (Homo sapiens, UniProt P53582); experiment: MetAP Inhibition Assay; conditions: pH 7.5; 22 °C
Protocol: (§1) The MetAP reaction with Co2+ as a cofactor is coupled to a prolyl aminopeptidase (ProAP) using Met-Pro-p-nitroanilide as substrate. MetAP-catalyzed cleavage of the N-terminal methionine produces prolyl-p-nitroanilide, which is rapidly hydrolyzed by ProAP to release a chromogenic product. […] The initial rate was calculated from the early part of the reaction progress curve (<5 min). Activity assays were performed in triplicate using eight to 16 concentrations of substrate or inhibitor.

[2] = molecular target: Methionine aminopeptidase 2 (Homo sapiens, UniProt P50579); experiment: MetAP Inhibition Assay; conditions: pH 7.5; 22 °C
Protocol: as §1

Chain of Methionine aminopeptidase 2 (P50579 whole entry): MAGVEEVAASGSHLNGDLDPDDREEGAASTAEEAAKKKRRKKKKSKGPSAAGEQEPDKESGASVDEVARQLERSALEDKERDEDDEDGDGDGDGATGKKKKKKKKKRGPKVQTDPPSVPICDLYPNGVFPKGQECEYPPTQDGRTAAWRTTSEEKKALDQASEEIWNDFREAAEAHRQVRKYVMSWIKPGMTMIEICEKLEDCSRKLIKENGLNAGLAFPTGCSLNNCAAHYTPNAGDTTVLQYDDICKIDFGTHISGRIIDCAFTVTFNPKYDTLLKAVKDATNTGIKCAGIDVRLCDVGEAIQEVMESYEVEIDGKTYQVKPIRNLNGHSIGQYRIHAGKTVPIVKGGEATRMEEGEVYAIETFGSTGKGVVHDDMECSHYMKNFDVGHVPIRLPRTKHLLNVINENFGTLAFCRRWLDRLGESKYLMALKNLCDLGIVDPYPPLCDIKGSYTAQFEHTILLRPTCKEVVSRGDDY

Compound	IC50 [1] [µM]	IC50 [2] [µM]
O=C(CCc1ccccc1)Nc1cccnc1C(=O)Nc1nccs1 [3-(3-phenylpropanamido)-N-(1,3-thiazol-2-yl)pyridine-2-carboxamide]	3.5	> 500
CC(C)C=Nc1cccnc1C(=O)Nc1nccs1 [3-[(E)-(2-methylpropylidene)amino]-N-(1,3-thiazol-2-yl)pyridine-2-carboxamide]	6.4	> 1000
CC(C)(C)C(=O)Nc1cccnc1C(=O)Nc1nccs1 [3-(2,2-dimethylpropanamido)-N-(1,3-thiazol-2-yl)pyridine-2-carboxamide]		> 500
CCCCCCCC(=O)Nc1cccnc1C(=O)Nc1nccs1 [3-octanamido-N-(1,3-thiazol-2-yl)pyridine-2-carboxamide]	> 500	> 500
CC(C)(C)OC(=O)Nc1cccnc1C(=O)Nc1nccs1 [tert-butyl N-[2-(1,3-thiazol-2-ylcarbamoyl)pyridin-3-yl]carbamate]		> 300
